Measurements reported in US20240025875A1, “A COMPOUND AS A THYROID HORMONE BETA RECEPTOR AGONIST AND USE THEREOF” (SUNSHINE LAKE PHARMA CO., LTD., priority 2020, published 2024).

Columns and labels:
[1] = Pharmacokinetic determination in SD rats (i.v. and i.g.); assay type: in vivo; details: for AUC(0-inf) / AUC(0-t) / Cmax / clearance / half-life / Vd: male, Sprague-Dawley (SD), rat, plasma; for Vd: read-out: VSS
Source text: Test purposes: The following method was used to determine the pharmacokinetics of the compound of the present invention.
Test Materials: • Experimental reagents and test samples used: Propranolol (internal standard), methanol, ammonium acetate, K2EDTA (potassium ethylenediaminetetraacetic acid), formic acid, acetonitrile MTBE (methyl tert-butyl ether). KolliphorHS15 (macrogol 12 hydroxystearate), DMSO (dimethyl sulfoxide) are commercially available • SD rats: male, 180-220 g, 7-8 weeks old, purchased from Human Slack Experimental Animal Co., Ltd.
Each test sample prepared was completely dissolved in a mixture of 5% DMSO+5% KolliphorHS 15+90% Saline according solubility property thereof.
Samples were processed by liquid-liquid extraction, chromatographically separated, quantitatively analyzed by multiple reaction ion monitoring (MRM) on a triple quadrupole tandem mass spectrometer, and the concentration of the results was calculated by instrument quantitative software.
30 μL of plasma sample was precisely pipetted, added with 250 μL of internal standard, and vortexed to mix thoroughly. Plasma samples was extracted once with 1 mL of MTBE, centrifuged at 13,000 rpm for 2 min at 4° C. 800 μL of the supernatant was sucked out, evaporated to dryness in a 96-well nitrogen blower, and the residue was reconstituted with 150 μL of methanol/water (v/v=50/50), vortexed to mix, and injected with an injection volume of 8 μL.
LC/MS/MS method was used to determine the content of the test compound in rat plasma after administration of different compounds.
Pharmacokinetic parameters were calculated using a noncompartmental method by WinNonLin 6.1 software.

TRα = target: T1, TRα (Homo sapiens, UniProt P10827); assay: LanthaScreen TR-FRET Thyroid Receptor alfa Coactivator Assay (in vitro binding activity); details: TR alfa-LBD
T1 construct: 5 μL of 4×TR beta/alfa-LBD; purchased Invitrogen PV4687
T1 sequence (P10827 163-410 isoform P10827-2 limits assumed, other chains not shown): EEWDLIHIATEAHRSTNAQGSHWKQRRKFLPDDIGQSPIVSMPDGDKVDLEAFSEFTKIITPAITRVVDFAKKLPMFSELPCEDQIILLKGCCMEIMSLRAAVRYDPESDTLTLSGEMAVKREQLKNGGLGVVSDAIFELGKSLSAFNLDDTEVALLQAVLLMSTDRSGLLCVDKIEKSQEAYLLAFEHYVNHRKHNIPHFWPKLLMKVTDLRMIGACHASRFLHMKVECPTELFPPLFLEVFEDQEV
How it was run: (§1)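 TR-FRET coactivator recruitment used GST-tagged TRα or TRβ ligand-binding domain with fluorescein-SRC2-2 peptide and Tb anti-GST antibody (0.4 μM and 8 nM in the added mix). Compound was run as 10-point 3-fold dilutions (2% DMSO solution) for 1 h at room temperature in the dark. EC50 came from the 520/495 nm emission ratio.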

TRβ = target: T2, TRβ (Homo sapiens, UniProt P10828); assay: LanthaScreen TR-FRET Thyroid Receptor beta Coactivator Assay (in vitro binding activity); details: TR beta-LBD
T2 construct: 5 μL of 4×TR beta/alfa-LBD; purchased Invitrogen PV4686
T2 sequence (P10828 217-461 limits assumed): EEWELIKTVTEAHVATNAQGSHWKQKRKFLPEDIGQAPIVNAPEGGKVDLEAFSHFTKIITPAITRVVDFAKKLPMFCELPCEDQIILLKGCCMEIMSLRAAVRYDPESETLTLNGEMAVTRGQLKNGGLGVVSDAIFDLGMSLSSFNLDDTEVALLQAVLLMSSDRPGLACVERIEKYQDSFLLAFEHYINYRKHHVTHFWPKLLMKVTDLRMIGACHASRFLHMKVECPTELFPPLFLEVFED
How it was run: as §1

| Compound | F ([1]; ig, 5 mg/kg) [%] | AUC(0-inf) ([1]; iv, 1 mg/kg) [ng·h/mL] | AUC(0-t) ([1]; iv, 1 mg/kg) [ng·h/mL] | Cmax ([1]; iv, 1 mg/kg) [ng/mL] | clearance ([1]; iv, 1 mg/kg) [mL/min/kg] | half-life ([1]; iv, 1 mg/kg) [h] | Vd ([1]; iv, 1 mg/kg) [L/kg] | AUC(0-inf) ([1]; po, ig, 5 mg/kg) [ng·h/mL] | AUC(0-t) ([1]; po, ig, 5 mg/kg) [ng·h/mL] | Cmax ([1]; po, ig, 5 mg/kg) [ng/mL] | half-life ([1]; po, ig, 5 mg/kg) [h] | EC50 (TRα) [µM] | EC50 (TRβ) [µM] |
| --- | --- | --- | --- | --- | --- | --- | --- | --- | --- | --- | --- | --- | --- |
| O=C1c2ccc(Oc3c(Cl)cc(-n4ncc(=O)[nH]c4=O)cc3Cl)cc2CCN1Cc1ccc(F)cc1 [Example 20, 2-(3,5-dichloro-4-((2-(4-fluorobenzyl)-1-oxo-1,2,3,4-tetrahydroisoquinolin-6-yl)oxy)phenyl)-1,2,4-triazine-3,5(2H,4H)-dione] | 115.1 | 16400 | 16300 | 3990 | 1.01 | 3.16 | 0.251 | 94400 | 93700 | 10400 | 3.57 | > 100 | 0.012 |
| O=C1c2ccc(Oc3c(Cl)cc(-n4ncc(=O)[nH]c4=O)cc3Cl)cc2CCN1Cc1ccccn1 [Example 46, 2-(3,5-dichloro-4-((1-oxo-2-(pyridin-2-ylmethyl)-1,2,3,4-tetrahydroisoquinolin-6-yl)oxy)phenyl)-1,2,4-triazine-3,5(2H,4H)-dione] | 126.5 | 10000 | 9810 | 4160 | 1.66 | 4.24 | 0.424 | 633000 | 61900 | 6410 | 5.93 | > 100 | 0.035 |
| O=C1c2ccc(Oc3c(Cl)cc(-n4ncc(=O)[nH]c4=O)cc3Cl)cc2CCN1c1cccnc1 [Example 49, 2-(3,5-dichloro-4-((1-oxo-2-(pyridin-3-yl)-1,2,3,4-tetrahydroisoquinolin-6-yl)oxy)phenyl)-1,2,4-triazine-3,5(2H,4H)-dione] | 138.3 | 3730 | 3580 | 5300 | 4.46 | 1.14 | 0.306 | 25800 | 25300 | 9680 | 3.63 | > 100 | 0.107 |
| O=C1c2ccc(Oc3c(Cl)cc(-n4ncc(=O)[nH]c4=O)cc3Cl)cc2CCN1Cc1cccnc1 [Example 45, 2-(3,5-dichloro-4-((1-oxo-2-(pyridin-3-ylmethyl)-1,2,3,4-tetrahydroisoquinolin-6-yl)oxy)phenyl)-1,2,4-triazine-3,5(2H,4H)-dione] | 163.9 | 2510 | 2460 | 1780 | 6.65 | 1.15 | 0.57 | 20600 | 20300 | 5320 | 4.14 | > 100 | 0.061 |
| O=C1c2ccc(Oc3c(Cl)cc(-n4ncc(=O)[nH]c4=O)cc3Cl)cc2CCN1Cc1ccncc1 [Example 24, 2-(3,5-dichloro-4-((1-oxo-2-(pyridin-4-ylmethyl)-1,2,3,4-tetrahydroisoquinolin-6-yl)oxy)phenyl)-1,2,4-triazine-3,5(2H,4H)-dione] | 117.7 | 3790 | 3720 | 4020 | 4.39 | 1.16 | 0.337 | 223000 | 21900 | 7790 | 2.65 | > 100 | 0.075 |
| O=C1c2ccc(Oc3c(Cl)cc(-n4ncc(=O)[nH]c4=O)cc3Cl)cc2CCN1Cc1cccc(OC(F)(F)F)c1 [Example 43, 2-(3,5-dichloro-4-((1-oxo-2-(3-(trifluoromethoxy)benzyl)-1,2,3,4-tetrahydroisoquinolin-6-yl)oxy)phenyl)-1,2,4-triazine-3,5(2H,4H)-dione] | 68.4 | 47700 | 39800 | 3410 | 0.349 | 9.52 | 0.26 | 212000 | 134000 | 8120 | 15.7 | > 100 | 0.031 |
| O=C1c2ccc(Oc3c(Cl)cc(-n4ncc(=O)[nH]c4=O)cc3Cl)cc2CCN1c1cccc(F)c1 [Example 42, 2-(3,5-dichloro-4-((2-(3-fluorophenyl)-1-oxo-1,2,3,4-tetrahydroisoquinolin-6-yl)oxy)phenyl)-1,2,4-triazine-3,5(2H,4H)-dione] | 134.8 | 1960 | 1860 | 4340 | 8.49 | 2.97 | 0.658 | 13200 | 12700 | 7700 | 2.53 | > 100 | 0.016 |
